Like-named read-outs stand apart in the source and are kept apart here.

Data set [1] has as its target T1, purified His6-hPGES (Homo sapiens, UniProt O14684).
T1 sequence (O14684 1-152): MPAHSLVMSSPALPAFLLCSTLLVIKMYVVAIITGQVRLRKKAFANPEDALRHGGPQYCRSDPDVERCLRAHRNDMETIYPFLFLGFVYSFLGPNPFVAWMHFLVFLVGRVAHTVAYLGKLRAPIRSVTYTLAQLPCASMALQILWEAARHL
In words: PGES activity assay: glutathione dependent conversion of PGH2 to PGE2 by purified His6-hPGES. It counts as biochemical. Further details: made in house; host or cells: E. coli BL21(DE3) with pLysSL. Conditions: sulfhydryl compound in place of GSH.

Data set [2] concerns the target T1, purified His6-hPGES. Put plainly: Reduction of 15-hydroperoxy-PGE2 (peroxidase activity) by purified his6-hPGES. It counts as biochemical. Conditions: 37 ° C., 0.1 mg/ml enzyme, 0.16 mM 15 hydroperoxy-PGE2. Further details: made in house; host or cells: E. coli BL21(DE3) with pLysSL. The protocol: This is presented in a typical chromatogram (FIG. 12B) as compared to the buffer control (FIG. 12C) after 30 seconds of incubation.

In data set [3] the target is T1, purified His6-hPGES. Put plainly: PGES activity assay: glutathione dependent conversion of PGH2 to PGE2 by purified His6-hPGES. It is filed as biochemical. Further details: made in house; host or cells: E. coli BL21(DE3) with pLysSL. As to conditions: for Specific activity: at Vmax. As for the experimental part: PGE synthase activity of the purified polypeptide, i.e., the ability to catalyze the conversion of a substrate of PGES into a 9-keto, 11-alpha-hydroxy form, e.g., PGH2 into PGE2 can be determined as follows. […] The polypeptide suspected of having PGES activity is incubated in a buffer, e.g., a sodium phosphate buffer in the presence of about 1 to 5 mM, preferably, 2.5 mM glutathione (GSH). The reaction is started by the addition of PGH2 at about 5 to 20 μM, and preferably 10 uM, and the reaction mixture is then incubated either at 37° C., at room temperature, or preferably, at 0° C., for about one to ten minutes, and preferably, for about one minute. The reaction can be terminated by the addition of a solution reducing the pH to about 3 or 3.2. This can be achieved by the addition of acetonitrile/HCl (as described in Jakobsson et al. (1999) PNAS 96:7220) or by the addition of FeCl2, citric acid, and/or 11-beta PGE2, as described in the Examples. The formation of PGF2 alpha, PGE2 and PGD2 can be determined by reverse-phase high pressure liquid chromatograph (HPLC) and UV detection at 195 nm. For subjecting the proteins to HPLC, the reaction mixtures can be subjected to solid phase extraction, e.g., using C18 Chomabond columns; the samples eluted with acetone, dried and dissolved in acetonitrile. The samples are then ready for HPLC. More details of these methods are provided in the Examples, as well as in Jakobssen et al., supra, and in published PCT application No. WO 00/28022 by Jakobsson et al.
(§1) PGES activity was assayed in 50 mM sodium phosphate buffer, pH 7.4, in the presence of 2.5 mM reduced glutathione (GSH; obtained from Sigma Chemical Co. (St. Louis, Mo.) and either zero; 0.2; 0.4 or 0.6 mg/ml of purified hPGES. The reaction was started by the addition of 10 μM PGH2, and the samples were incubated for 1 minute at 0° C. until terminated by 20 mM FeCl2, 40 mM citric acid and 2.1 μM 11-β. PGE2, lowering the pH to 3. PGH2 was prepared by brief incubation of arachidonic acid with suspensions of the microsomal fraction of homogenate of the sheep vesicular gland essentially as described in Hamberg et al. (1974) PNAS 71:345 or Hecker et al. (1987) Biochem. Pharmacol. 36:851. L-tryptophan (5 mM) was used as electron donor. Purification was accomplished by straight-phase HPLC using a solvent system of 2.5% 2-propanol-hexane containing 0.002% acetic acid. Solid phase extraction using C18 Chromabond columns was performed immediately. The samples were eluted with acetone, dried and dissolved in acetonitrile (⅓ by vol. in H2O) and the formation of PGE2 was analyzed by reverse-phase HPLC on a C18 (3.9×150 mm, 4 μM particle size) column and UV detection at 195 nm.
(§2) The remaining protein was divided in two parts, one was stored at 4° C. for 5 days, and one was frozen and stored at −20° C. for the same time. The PGES activity in the three samples was compared with that in a membrane fraction without solubilization. PGES activity was determined, as described above, for various amounts of protein. The samples were incubated for 1 min on ice or at 37° C. before stopping the reaction. The activity of the purified proteins was compared with the activity in BL21(DE3) membrane fraction without solubilization.
(§3) All points were made in triplicate. The Michaelis-Menten constants KM and Vmax (maximum velocity) were derived by hyperbolic regression with the computer program GraphPad Prism software 3.0 or 3.02 (GraphPad Software, Inc., San Diego, Calif.).

Data set [4] concerns the target T1, purified His6-hPGES. In words: Glutathione transferase (GST) activity of purified His6-hPGES with CDNB. Also on record: made in house; host or cells: E. coli BL21(DE3) with pLysSL. It is filed as biochemical. As to conditions: pre-incubation with 5 mM N-ethylmaleimid in the absence of GSH for 1 minute. As for the experimental part:
Glutathione transferase (GST) activity (glutathione conjugation) was assayed with the classical model substrate for GSTs, p-chloro-2,4-dinitrobenzene (CDNB). […] Formation of product was detected at 340 nm (molar absorption coefficient for the product, GS-DNB, is 9.6 mM^−1 cm^−1).

Data set [5] deals with T1, purified His6-hPGES. In words: Isomerization of PGG2 into 15-hydroperoxy-PGE2 by purified His6-hPGES. It counts as biochemical. Further details: made in house; host or cells: E. coli BL21(DE3) with pLysSL. As for the experimental part:
PGG2 was prepared similarly to PGE2 (described above), omitting the L-tryptophan. The reaction was terminated by lowering the pH to 3 by adding 6 μl HCl (1M). Then, 45 μl acetonitrile was added and centrifugation was performed at 14,000 g, for 1 minute to remove the protein. […] In order to determine the formation of PGE2 and 15-Hydroperoxy PGE2, an aliquot (100 μl) was analyzed by RP-HPLC, combined with UV detection at 195 nm. The products were quantified based on the peak areas from known amounts of injected prostaglandins.

For data set [6], the target named is T1, purified His6-hPGES. As to conditions: 37 ° C., 0.05 mg/ml enzyme, 1 mM GSH, 0.5 mM cumene hydroperoxide.
The format of data set [7] is physicochemical. As for the experimental part: Membrane fractions were solubilized in 50 mM sodium phosphate buffer, pH 8.0, 150 mM NaCl, 4% Triton X-100, 10% glycerol and 1 mM GSH and stored at 4° C. Samples were assayed for PGES activity as described above after 0, 3, 6, 24 and 240 h (10 days) at 4° C.
as §2

A short description of data set [8]: Specific activity and kinetic properties of purified His6-hPGES for conversion of PGH2 to PGE2. It counts as biochemical. Conditions: for Specific activity of the purified His6-hPGES: glutathione dependent conversion of PGH2 to PGE2. As for the experimental part: as §1, §2, §3
Where [9] appears, read: 37° C., steady state, KM values apparent, read-out: KM.

As for `O[C@H](CS)[C@H](O)CS` (racemic) [dithiothreitol], in data set [1], the “PGES activity when GSH was substituted by other sulfhydryl compounds” value (“PGES activity when GSH was substituted” below) was “no PGES-activity could be detected”.

As to `OCCS` [2-mercaptoethanol], in data set [1], the “PGES activity when GSH was substituted” value was “no PGES-activity could be detected”.

On to `CCCCC[C@@H](/C=C/[C@H]1[C@H](O)CC(=O)[C@@H]1C/C=C\CCCC(=O)O)OO` [15-hydroperoxy-PGE2, 15-Hydroperoxy PGE2], for which the “Specific activity (reduction of 15-hydroperoxy-PGE2)” value in data set [2] is 0.043 ± 0.019 µmol/min/mg; in data set [2] (listed as 15-HP PGE2), “no peroxidase activity towards this compound was detected”.

As to `N[C@@H](CCC(=O)N[C@@H](CS)C(=O)NCC(=O)O)C(=O)O` [GSH, reduced glutathione], the kcat in data set [3] (37° C., steady state) is 21 ± 1 s⁻¹. For the same molecule, the Michaelis constant (Km) in data set [3] (setting [9]) was 710 ± 200 µM.

For `CC(=O)N[C@@H](CS)C(=O)O` [N-acetylcysteine], the “PGES activity when GSH was substituted” value in data set [1] is reported as “no PGES-activity could be detected”.

As for `CCN1C(=O)C=CC1=O` [N-ethylmaleimide], the “Reduction of PGES activity” value in data set [3] (pre-incubation with 5 mM N-ethylmaleimide in the absence of GSH for 1 minute) is reported as about 100%. In data set [4], the “Reduction of GST enzyme activity” value was found to be 50%.

For the molecule `CCCCC[C@@H](/C=C/[C@@H]1[C@@H](C/C=C\CCCC(=O)O)[C@@H]2C[C@H]1OO2)OO` [PGG2], the kcat in data set [5] (37° C., steady state, PGG2 as substrate) was found to be 75 ± 4 s⁻¹. Moreover, the Michaelis-Menten constant (Km) in data set [5] (37° C., steady state, PGG2 as substrate, apparent) was determined as 160 ± 30 µM. The molecule further showed a Specific activity in data set [5] (37 ° C., substrate PGG2, highest measured specific activity) of 250 ± 15 µmol/min/mg.

As for `CCCCC[C@H](O)/C=C/[C@@H]1[C@@H](C/C=C\CCCC(=O)O)[C@@H]2C[C@H]1OO2` [PGH2, Prostaglandin endoperoxide H2], the maximal velocity (Vmax) stood at 0.25 ± 0.013 µM/s in data set [3] (0° C., 1 μg/ml purified PGES, 2.5 mM GSH, varying PGH2) and 1.39 ± 0.16 µM/s in data set [3] (37° C., 1 μg/ml purified PGES, 2.5 mM GSH, varying PGH2). Also, the Km in data set [3] (0° C., 1 μg/ml purified PGES, 2.5 mM GSH, varying PGH2, read-out: Km for PGH2) was 50 ± 8.9 µM; in data set [3] (37° C., 1 μg/ml purified PGES, 2.5 mM GSH, varying PGH2, read-out: Km for PGH2), 163 ± 42 µM; in data set [3] (setting [9]) it was 160 µM. In data set [3] (37° C., steady state), the kcat turned out to be 50 ± 6 s⁻¹. Further, the Specific activity in data set [3] (substrate PGH2, 0 ° C.) is 15 µmol/min/mg; in data set [3] (substrate PGH2, 37 ° C.) it was 170 ± 20 µmol/min/mg.

cumene hydroperoxide: the “Specific activity (GSH-dependent peroxidase)” value in data set [6] stood at 0.17 ± 0.02 µmol/min/mg; in data set [6] (listed as cumene hydroperoxide), 0.17 µmol/min/mg.

B1: His6-hPGES: full length human PGES fused at its N-terminus to six histidine residues (SEQ ID NO: 4), expressed in E. coli (protein)
chain: MHHHHHHMPAHSLVMSSPALPAFLLCSTLLVIKMYVVAIITGQVRLRKKAFANPEDALRHGGPQYCRSDPDVERCLRAHRNDMETIYPFLFLGFVYSFLGPNPFVAWMHFLVFLVGRVAHTVAYLGKLRAPIRSVTYTLAQLPCASMALQILWEAARHL
In the case of B1, in data set [7] (816 h), the Original activity remaining result is listed as “about 50%”. Also, the “PGES activity in BL21 (DE3) membranes” value in data set [7] (in the absence of glycerol and GSH) is given as “rapidly declines within a period of 24 h”. In addition, in data set [7] (purified enzyme heated at 100° C. for 10 minutes), the “PGES activity after heating” value was “no PGES-activity could be detected”. Further, the “Activity compared to the freshly prepared enzyme” value in data set [7] (purified enzyme, five days of storage at 4° C.) is given as “unchanged”. For the same molecule, the “Loss of activity on storage” value in data set [7] (purified enzyme, up to at least two months at −20° C.) is recorded as “does not seem to result in any loss of activity”. Further, the “Specific activity of the purified His6-hPGES” value in data set [8] (0° C.) came to 15 µmol/min/mg. Besides, the “Specific activity of the purified His6-hPGES” value in data set [8] (37° C.) was found to be 167 µmol/min/mg. For the same molecule, in data set [8] (Human, recombinant), the Michaelis constant (Km) was 163 µM, the “Spec. Act.” value is 167 µmol/min/mg and the kcat came out at 50 s⁻¹.

For orientation: kcat means the maximal rate divided by the concentration of active sites. The term Km denotes the substrate concentration at which the rate is half of its maximum. For orientation: Vmax means the rate approached at saturating substrate.

Values taken from patent US20030157084A1, “Methods for preparing purified prostaglandin E synthase” (priority 2001, published 2003).
